Assay results from patent publication US20150136638A1, “METHOD FOR PREPARING A SYRUPY PRODUCT COMPRISING VITAMINS” (LaboratoiresUrgo, priority 2012, published 2015).

Experiment: Assay of the vitamins contained in a randomly taken bottle of the syrupy product of Example 2 (yield = actual / theoretical amount x 100)
Format: physicochemical
Settings: syrupy product of Example 2, after preparation and packaging under inert atmosphere; actual amount of vitamin in the bottle divided by theoretical amount x 100
Description: The process can be broken down into the following steps: • the two preparation tanks (PT1 and PT2) and the pipe connecting them are inerted with an overpressure of inert gas at 0.4 bar for 300 sec.; • the sugar syrup is introduced into the main preparation tank (PT1); • the sugar syrup is left to stir with bubbling of nitrogen with a pressure of 0.4 bar and a flow rate of 4 Nm^3/h for 4 hours; • the sugar syrup is heated at 50° C. by means of the double jackets surrounding tank PT1; • the pH of the sugar syrup is adjusted to 9.5 by introducing the sodium hydroxide and the ascorbic acid; • the secondary preparation tank (PT2) is preheated at 50° C. by means of the double jackets surrounding tank PT2; • the Montanox 80 and the following fat-soluble vitamins: vitamin A, vitamin D3, vitamin E, are introduced into the secondary preparation tank (PT2); • the mixture in tank PT2 is left to stir at 50° C. and with bubbling of nitrogen for 60 minutes; • the content of tank PT2 is transferred to tank PT1 via the pipe connecting them; • tank PT2 is rinsed several times with water, at 50° C., purified and deoxygenated beforehand, and the rinsing water is then transferred to tank PT1 via the pipe connecting PT2 to PT1; • the content of tank PT1 is left to stir at 50° C. and with bubbling of nitrogen for 60 minutes; • the temperature of the content of tank PT1 is reduced to 35° C.; • the following water-soluble vitamins: vitamin B1, vitamin B2, vitamin B3, vitamin B5, vitamin B6, vitamin B8, vitamin B12 and vitamin C, and also the plum flavoring, are introduced into tank PT1; • the reservoirs which contained the vitamins are rinsed with purified water and the rinsing water is added to tank PT1; • the content of tank PT1 is left to stir at 35° C. and with bubbling of nitrogen for 120 minutes; • the dehydrated glucose is introduced into tank PT1 via the powder-transferring system; • purified and deoxygenated water is introduced into tank PT1; • the content of tank PT1 is left to stir at 35° C. and with bubbling of nitrogen for 60 minutes; • the piping between tank PT1 and the storage tank is inerted, and the storage tank is inerted with a nitrogen pressure at 0.4 bar and a flow rate of 1 Nm^3/h for 300 seconds; • the content of tank PT1 is transferred to the storage tank passing through the mixer into which nitrogen is injected, in contraflow to the passage of the liquid, with a pressure of 0.4 bar and a flow rate of 8 Nm^3/h; • the syrupy product which gradually accumulates in the storage tank is kept stirring at 150 rpm and with bubbling of nitrogen with a pressure of 0.4 bar and a flow rate of 2 Nm^3/h; • the pipes between the storage tank and the bottle-filling machine, and also the packaging hopper, are inerted with nitrogen at a pressure of 0.3 bar for 600 seconds; • the syrupy product is transferred to the packaging hopper and the content is kept at a nitrogen pressure of 0.2 bar; • the syrupy product is gradually transferred to the bottle-filling machine; • the bottles are inerted with nitrogen at 1 bar for 100 milliseconds, then they are filled with a volume of syrupy product metered by a positive-displacement pump and they are kept under a nitrogen atmosphere until they are closed by means of a crimped valve.
One of the bottles produced is taken randomly and the vitamins contained in this bottle are assayed. The yields are calculated by dividing the actual amount of vitamins that is contained in the bottle by the theoretical amount of vitamins that should be in the bottle, and by multiplying the result by 100.

| Molecule | YIELD (individual vitamin ratio) |
| --- | --- |
| CC1=C(/C=C/C(C)=C/C=C/C(C)=C/CO)C(C)(C)CCC1 [Vitamin A, retinol] | 100% |
| Vitamin E | 100% |

Results, then the molecule that gave them:

| YIELD (individual vitamin ratio) | Molecule |
| --- | --- |
| 98.6% | Cc1cc2nc3c(=O)[nH]c(=O)nc-3n(C[C@H](O)[C@H](O)[C@H](O)CO)c2cc1C [Vitamin B2, riboflavin] |
| 98.8% | O=C(O)c1cccnc1 [Vitamin B3, nicotinic acid] |
| 100% | CC(C)(CO)[C@@H](O)C(=O)NCCC(=O)O [Vitamin B5, pantothenic acid] |
| 98.6% | Cc1ncc(CO)c(CO)c1O [Vitamin B6, pyridoxine] |
